According to US9029337B2, “Modulation of factor 7 expression” (Isis Pharmaceuticals, Inc., priority 2007, dated 2015):
Strand notation (5' to 3'): a small letter for the sugar, then the base; units joined by * are phosphorothioate-linked, units joined directly phosphodiester-linked; [ ] holds rarer units or linkages, { } end groups; capitals alone tell only the bases. e = 2'-O-(2-methoxyethyl) (MOE); [5mC] = 5-methylcytosine; d = 2'-deoxy (DNA)

System: human Factor 7 mRNA
Assay: Antisense inhibition of human Factor 7 mRNA in HepB3 cells, 50 nM antisense oligonucleotide, lipofectin
Format: cell-based
Settings: Table 1, 50 nM, lipofectin, approximately 24 hours, relative to untreated control cells
How it was run: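 Percent inhibition, untreated cells as reference: derived from RNA collected about 24 hours post-transfection of 4,000-cell wells, with the human RTS 2927 primer probe set and adjustment for total RNA content (RIBOGREEN®).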

Substance	% Inhibition [%]
407623 (antisense eT*e[5mC]*e[5mC]*eA*eT*dT*d[5mC]*dA*d[5mC]*d[5mC]*dA*dA*d[5mC]*dA*dA*e[5mC]*eA*eG*eG*eA) [compound 407623]	69
407636 (antisense eG*e[5mC]*eA*eG*e[5mC]*d[5mC]*d[5mC]*dT*dG*dG*d[5mC]*d[5mC]*d[5mC]*d[5mC]*dA*eG*e[5mC]*eT*eG*eA) [compound 407636]	75
407668 (antisense eG*eA*eA*eG*e[5mC]*d[5mC]*dT*dT*dA*d[5mC]*d[5mC]*dT*dG*d[5mC]*d[5mC]*eA*eT*eG*eG*eA) [compound 407668]	54
407954 (antisense e[5mC]*eA*eG*eG*eG*dA*dG*dA*dG*dA*dA*d[5mC]*dA*dT*d[5mC]*e[5mC]*eA*eA*eT*eT) [compound 407954]	39
407895 (antisense e[5mC]*eA*e[5mC]*eA*e[5mC]*dA*dG*dA*dT*d[5mC]*dA*dG*d[5mC]*dT*dG*eG*eT*e[5mC]*eA*eT) [compound 407895]	72
407618 (antisense eG*eT*eA*eT*eT*dT*dT*dT*d[5mC]*d[5mC]*dA*d[5mC]*dA*dT*dG*eG*eA*eT*eA*eT) [compound 407618]	42
407952 (antisense eG*eG*eA*eT*e[5mC]*d[5mC]*dT*dG*dG*dG*dA*dG*d[5mC]*dT*dA*e[5mC]*eA*eG*e[5mC]*e[5mC]) [compound 407952]	41
407609 (antisense eA*eG*eA*eA*eG*d[5mC]*dA*dG*dA*dT*dA*dT*dA*dG*dG*eA*e[5mC]*eT*eG*eG) [compound 407609]	35
407958 (antisense eG*e[5mC]*e[5mC]*eG*eT*dG*d[5mC]*dT*dT*dG*d[5mC]*d[5mC]*dG*dG*dA*eG*eT*e[5mC]*eT*eG) [compound 407958]	58

Same assay, conditions: Table 6, 50 nM, lipofectin, approximately 24 hours

Substance	% Inhibition [%]
422271 (antisense e[5mC]*eT*dG*dA*dG*d[5mC]*dG*d[5mC]*dG*dG*dA*dA*dG*dA*dA*eG*eG*eG*eA*e[5mC]) [compound 422271]	32
422188 (antisense eG*e[5mC]*eG*dG*dA*dA*dG*dA*dA*dG*dG*dG*dA*d[5mC]*dG*dG*dA*eA*eG*eG) [compound 422188]	37
422268 (antisense eA*eG*d[5mC]*dG*d[5mC]*dG*dG*dA*dA*dG*dA*dA*dG*dG*dG*eA*e[5mC]*eG*eG*eA) [compound 422268]	63

Same assay, conditions: gapmers targeted to nucleobases 4868 to 4899 of SEQ ID NO: 1, Table 8

Substance	% Inhibition of human Factor 7 mRNA levels [%]
422214 (antisense eT*eT*e[5mC]*dT*dG*d[5mC]*dA*dG*dG*dA*dG*d[5mC]*dG*dG*d[5mC]*d[5mC]*dT*eA*eA*eA) [compound 422214]	60
422143 (antisense e[5mC]*e[5mC]*eG*eA*eG*dT*dT*d[5mC]*dT*dG*d[5mC]*dA*dG*dG*dA*eG*e[5mC]*eG*eG*e[5mC]) [compound 422143]	70
422145 (antisense eG*e[5mC]*e[5mC]*e[5mC]*eG*dA*dG*dT*dT*d[5mC]*dT*dG*d[5mC]*dA*dG*eG*eA*eG*e[5mC]*eG) [compound 422145]	57
422225 (antisense eA*eG*eG*dA*dG*d[5mC]*d[5mC]*d[5mC]*dG*dA*dG*dT*dT*d[5mC]*dT*dG*d[5mC]*eA*eG*eG) [compound 422225]	56

Same assay, conditions: lipofectin, 50 nM antisense oligonucleotide, approximately 24 hours, Factor 7 mRNA by real-time RT-PCR (RTS 2927), relative to untreated control

Substance	% Inhibition [%]
416492 (antisense eG*eG*eA*eT*e[5mC]*dA*dT*dT*d[5mC]*dT*dG*dG*d[5mC]*d[5mC]*d[5mC]*eT*eG*eA*eG*e[5mC]) [compound 416492]	13
416501 (antisense e[5mC]*eT*eG*e[5mC]*e[5mC]*d[5mC]*dT*dT*d[5mC]*d[5mC]*dA*d[5mC]*d[5mC]*dA*dA*eG*eT*eT*eT*eA) [compound 416501]	18
416441 (antisense eA*eG*eA*eT*eA*dT*dA*dG*dG*dA*d[5mC]*dT*dG*dG*dA*eG*e[5mC]*eT*eG*eG) [compound 416441]	32
416474 (antisense eT*eG*eT*e[5mC]*eT*dG*d[5mC]*d[5mC]*dT*d[5mC]*d[5mC]*dA*dG*dG*dA*e[5mC]*eA*eA*e[5mC]*e[5mC]) [compound 416474]	40
416568 (antisense e[5mC]*eA*eT*eT*eG*dT*dG*d[5mC]*d[5mC]*dT*dG*dG*d[5mC]*dA*d[5mC]*eA*e[5mC]*eA*eG*eG) [compound 416568]	14
416479 (antisense eG*eA*e[5mC]*eA*eG*d[5mC]*dA*d[5mC]*dA*d[5mC]*dA*dT*dG*dG*dA*eG*eT*e[5mC]*eA*eG) [compound 416479]	56
416556 (antisense eA*eT*eA*eG*e[5mC]*dT*dT*dT*dG*dA*dT*d[5mC]*d[5mC]*dA*dA*eT*eG*e[5mC]*eT*e[5mC]) [compound 416556]	53
416445 (antisense eT*eA*e[5mC]*eT*eG*d[5mC]*dT*d[5mC]*dA*d[5mC]*dA*dG*d[5mC]*d[5mC]*dG*e[5mC]*e[5mC]*eG*eT*eT) [compound 416445]	57
416516 (antisense eG*eT*eG*eA*eG*dA*dA*dT*dA*d[5mC]*dA*dA*d[5mC]*dA*dG*eA*eT*eG*eA*eG) [compound 416516]	24
416560 (antisense eT*eA*eA*eA*eA*d[5mC]*dT*dT*dT*dA*dT*dT*dT*dA*d[5mC]*eA*eA*eG*eA*eG) [compound 416560]	0
416478 (antisense eG*eT*e[5mC]*eT*e[5mC]*d[5mC]*dA*dG*d[5mC]*dA*dA*dT*dG*dA*dA*eG*eG*e[5mC]*eA*eG) [compound 416478]	44

Same assay, conditions: oligonucleotides targeted to nucleobases 11830 to 11869 of SEQ ID NO: 1 (Table 9)

Substance	% Inhibition (human Factor 7 mRNA levels) [%]
422154 (antisense eT*e[5mC]*eA*dG*dG*dG*d[5mC]*dT*dG*dG*dT*dT*dT*dT*dG*dG*dA*eG*eG*eA) [compound 422154]	31
422160 (antisense e[5mC]*eA*eA*dT*dG*dG*dT*d[5mC]*dA*dG*dG*dG*d[5mC]*dT*dG*dG*dT*eT*eT*eT) [compound 422160]	42
422102 (antisense e[5mC]*eT*eG*eA*eG*dG*dA*dG*dA*d[5mC]*dA*dA*dT*dG*dG*eT*e[5mC]*eA*eG*eG) [compound 422102]	62
422156 (antisense eG*eG*eT*d[5mC]*dA*dG*dG*dG*d[5mC]*dT*dG*dG*dT*dT*dT*dT*dG*eG*eA*eG) [compound 422156]	38
422092 (antisense eA*eT*eG*eG*eT*d[5mC]*dA*dG*dG*dG*d[5mC]*dT*dG*dG*dT*eT*eT*eT*eG*eG) [compound 422092]	36
422158 (antisense eA*eT*eG*dG*dT*d[5mC]*dA*dG*dG*dG*d[5mC]*dT*dG*dG*dT*dT*dT*eT*eG*eG) [compound 422158]	49

Same assay, conditions: oligonucleotides targeted to nucleobases 14707 to 14732 of SEQ ID NO: 1 (Table 11)

Substance	% Inhibition (human Factor 7 mRNA levels) [%]
422205 (antisense eA*eG*e[5mC]*dA*dG*d[5mC]*d[5mC]*dT*dG*dA*dG*dG*d[5mC]*d[5mC]*dA*dG*d[5mC]*eA*eG*eA) [compound 422205]	63
422203 (antisense e[5mC]*eA*eG*d[5mC]*d[5mC]*dT*dG*dA*dG*dG*d[5mC]*d[5mC]*dA*dG*d[5mC]*dA*dG*eA*eT*e[5mC]) [compound 422203]	52

Same assay, conditions: oligonucleotides targeted to nucleobases 15098 to 15122 of SEQ ID NO: 1 (Table 12)

Substance	% Inhibition (human Factor 7 mRNA levels) [%]
416479 (antisense eG*eA*e[5mC]*eA*eG*d[5mC]*dA*d[5mC]*dA*d[5mC]*dA*dT*dG*dG*dA*eG*eT*e[5mC]*eA*eG) [compound 416479]	47
